Values of other authors as cited in patent US20250381182A1, “ALDH-2 INHIBITOR COMPOUNDS AND METHODS OF USE” (Amygdala Neurosciences, Inc., priority 2024, published 2025).

Settings: O'Malley et al. 2021, Phase 2 study of ANS-6637; cited from earlier work

Which hepatotoxicity in humans does the source give for O=C(NCc1ccc(-c2cc[nH]c(=O)c2)cc1)c1c(Cl)cccc1Cl [2,6-dichloro-N-[4-(2-oxo-1,2-dihydro-pyridin-4-yl)-benzyl]-benzamide] here?
Its hepatotoxicity in humans is “high levels of hepatotoxicity”.
